Test results: patent US20030055106A1, “Therapeutic uses of peroxometallic compounds” (priority 1999, published 2003)

Tests used:
[1] = system: Leishmania major; experiment: Leishmania vaccination trial (adjuvant); parameters: species or system BALB/c mice; conditions: in vivo, Leishmania infection
Method: FIG. 10: Use of bpV(phen) as an adjuvant in Leishmania vaccination trial. BALB/c mice were inoculated with soluble Leishmania major antigen (SLA; 100 μg) with or without daily injection of bpV(phen) ([…]) for 5 days. Two weeks later animals received a second set of treatment as above. Control animals received either PBS or bpV(phen) alone without any SLA. At 4 weeks post-vaccination, animals were challenged with 5 million Leishmania major stationary phase promastigotes injected in the right hind footpad. Progression of infection was followed by measuring footpad thickness with a caliper on a weekly basis. Differences measured for reduced footpad thickness were significant (p<0.01, Student's t test, n=5-10 animals per group) over their respective controls.
In the past, use of total and soluble Leishmania antigen (SLA) for vaccination has been reported and permitted some levels of protection against infectious challenges (85). Using a murine model, we have tested whether bpV(phen)-modulated cytokine and chemokine generation (as reported above) in combination with SLA administration could lead to protection against Leishmania infection. Mice have received PBS and bpv(phen) as controls, and SLA (100 μg) with or without daily bpV(phen) injection (500 nM, 5 days). All injections were done intra-peritoneally. […]

[2] = system: endothelial cells having invaded Matrigel plugs; experiment: In vivo s.c. Matrigel plug assay; parameters: species or system C57B1/6N female mice; conditions: daily i.p. administration of 10 μg/mice or higher doses, day 1 to day 7
Method: FIG. 5: bpV(phen) inhibits angiogenesis in vivo in the s.c. Matrigel assay. Graph showing the results of an experiment expressed as the number of cells that migrated in three microscopic fields for each s.c. Matrigel plug. Fields were equidistant from the edge of the plug. […] (2) Four mice that received daily administration of 10 μg bpV(phen) during the 7 days post-implantation. (3) Four mice that received daily administration of 50 μg bpV(phen) during the 7 days post-implantation. (4) Four mice that received daily administration of 100 μg bpv(phen) during the 7 days post-implantation. (5) Four mice that received daily administration of PBS during the 7 days post-implantation.
This assay was performed as previously described (107). Briefly, Matrigel (liquid at 4° C.) was mixed with 200 ng/ml ECGS and injected s.c. into four C57B1/6N female mice (1 ml/mice). After injection, the Matrigel polymerized to form a plug. After 7 days, the animals were sacrified, and the Matrigel plugs were removed and fixed in 10% neutral-buffered formalin solution (Sigma Chemical Co.) and embedded in paraffin. Histological sections were stained with Masson's trichrome and angiogenesis was scored by counting the number of cells that migrated in three microscopic fields for each s.c. Matrigel plug.
Experiments were performed to determine whether bpV(phen) inhibits vessel formation in vivo. […]

[3] = system: Th1 and Th2 cytokine genes in spleen; experiment: Cytokine gene expression in spleen (multi-probe RNase protection assay); type: in vivo, BALB/c mice; conditions: naive mice; up to 24 hr; in comparison to PBS
Source text: FIG. 8: In vivo bpV(phen)-induced cytokine gene expression in spleen of BALB/c mice. Expression of Th1 (IFN-(, IL-2, IL-12) and Th2 (IL-4 and IL-10) cytokines were monitored in spleen of BALB/c mice in response to bpv(phen) over a 24-hr period. Expression of cytokine genes has been monitored using a multi-probe RNase protection assay as described in more detail below. Results obtained are representative of 3 experiments performed independently.

SMILES: O.O.O.OO.OO.[K+].[OH-].[V].c1cnc2c(c1)ccc1cccnc12 [bpV(phen), potassium bisperoxo(1,10-phenanthroline)oxovanadate]
- protection against infectious challenge (adjuvant potential) [1]: complete protection
- number of endothelial cells having invaded Matrigel plugs [2]: decreased by half
- cytokine gene expression in spleen (IL-12, IL-10, IL-2 and IFN) [3]: significantly up-regulated
